Measurements as given in PMC6611822, “Enhancement of laccase activity by pre-incubation with organic solvents” (Scientific Reports, 2019).
Values belong to the molecule of their own block, whether it stands above or below them.

What was measured:
AbLac = test system: T1, AbLac; conditions: 0% acetone pre-incubation; pH 3.0 citrate-phosphate; 30 °C
T1 construct: gene lcc1

TvLac = test system: T2, TvLac; conditions: 0% acetone pre-incubation; pH 3.0 citrate-phosphate; 30 °C
T2 construct: gene LCC1

purified protein = substrate: CCn1c(=NN=c2sc3cc(S(=O)(=O)O)ccc3n2CC)sc2cc(S(=O)(=O)O)ccc21; assay: purified protein; type: biochemical, Cerrena; conditions: 0% acetone pre-incubation, pH 3.0 citrate-phosphate, 30 °C, 1.25–800 μM ABTS

Km (AbLac): 212 ± 19.5 µM
Km (TvLac): 29 ± 2.1 µM
Molecule: CCn1c(=NN=c2sc3cc(S(=O)(=O)O)ccc3n2CC)sc2cc(S(=O)(=O)O)ccc21 [ABTS, 2,2′-azino-bis(3-ethylbenzothiazoline-6-sulphonic acid)]

B1: DLac (Cerrena) (protein)
chain: AVGPVTDIHIVNKDIAPDGFSRPSVLAGGTFPGPLITGQKGDNFKLNVVDDLTDASMLKSTSIHWHGFFQKGTNWADGPAFVNQCPISTGNSFLYNFQVPDQAGTYWYHSHLSTQYCDGLRGAFVVYDPTDPHKALYDVDDESTVITLADWYHTLARQIVGVAIADTTLINGLGRNTNGPADAALAVINVEAGKRYRLRLVSISCDPNYVFSIDNHDFNIIEVDGVNSKPLNVDSIQIFAGQRYSAVLNANQPVGNYWVRANPNLGTTGFTGGINSAILRYKGAPVAEPTTTQTTSTKPLQEPNLRPLVSMPVPGSATPGGVDVVHNLILGFSAGKFTINGAAFTPPSVPVLLQILSGTTNAQDLLPSGSVITLPIGKTIELTLAAGVLGGPHPFHLHGHNFHVVRSAGQTTPNYVDPIVRDVVNTGGTGDNVTIRFTTDNPGPWFLHCHIDWHLEAGFAVVFAEGVNQTNAANPTPADWNNLCNIYNALADGDK
notes: source not restated here; 494 C atoms superimposed in the crystal structures
Km (purified protein): 24 ± 3.9 µM
kcat/Km (purified protein): 1.47e+09 ± 3.1e+08 M⁻¹ s⁻¹
